{
  "source": "paper PMC10799341",
  "about": "“Carnosol ameliorated cancer cachexia-associated myotube atrophy by targeting P5CS and its downstream pathways” (Frontiers in Pharmacology, 2024)",
  "key": {"[1]": {"target": "T1, P5CS, endogenous in H9c2 cardiomyocytes (Rattus norvegicus, UniProt A0A8I6AAN3)", "T1 construct": "gene Aldh18a1; native endogenous protein in H9c2 cell lysate; no tag; detected by Western blot", "T1 sequence (A0A8I6AAN3 1-795)": "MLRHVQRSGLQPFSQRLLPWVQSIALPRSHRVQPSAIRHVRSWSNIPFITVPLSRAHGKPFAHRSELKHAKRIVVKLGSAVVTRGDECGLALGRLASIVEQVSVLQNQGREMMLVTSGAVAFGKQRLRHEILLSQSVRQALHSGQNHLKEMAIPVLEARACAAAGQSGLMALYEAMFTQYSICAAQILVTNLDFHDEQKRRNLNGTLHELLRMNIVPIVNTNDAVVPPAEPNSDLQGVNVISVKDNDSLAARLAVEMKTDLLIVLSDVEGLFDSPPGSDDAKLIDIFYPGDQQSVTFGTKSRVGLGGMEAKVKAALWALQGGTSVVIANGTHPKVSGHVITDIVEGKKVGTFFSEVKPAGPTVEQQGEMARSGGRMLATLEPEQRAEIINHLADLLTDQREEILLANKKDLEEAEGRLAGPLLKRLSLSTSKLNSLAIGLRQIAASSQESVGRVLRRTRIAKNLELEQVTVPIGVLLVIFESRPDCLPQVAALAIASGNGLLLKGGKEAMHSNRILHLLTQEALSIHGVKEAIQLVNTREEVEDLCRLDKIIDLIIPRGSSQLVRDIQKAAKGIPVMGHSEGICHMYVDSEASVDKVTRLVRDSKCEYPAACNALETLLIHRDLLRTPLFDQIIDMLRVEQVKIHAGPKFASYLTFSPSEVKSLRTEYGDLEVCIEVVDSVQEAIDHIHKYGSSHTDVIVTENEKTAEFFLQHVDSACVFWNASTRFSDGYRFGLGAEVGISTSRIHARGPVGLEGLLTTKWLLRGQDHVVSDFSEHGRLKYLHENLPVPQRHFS", "assay": "CETSA, Western blot", "assay_type": "biochemical", "conditions": "H9c2 cell lysate, 20 μM carnosol, 30 min room temperature then 1 h at 4 °C; heated 5 min"}, "[2]": {"target": "T2, GFP-Aldh18a1 (P5CS) (Mus musculus, UniProt Q9Z110)", "T2 construct": "GFP fusion from plasmid, tag kept; expressed in 293T cells, used as NP40 lysate", "T2 sequence (Q9Z110 1-795)": "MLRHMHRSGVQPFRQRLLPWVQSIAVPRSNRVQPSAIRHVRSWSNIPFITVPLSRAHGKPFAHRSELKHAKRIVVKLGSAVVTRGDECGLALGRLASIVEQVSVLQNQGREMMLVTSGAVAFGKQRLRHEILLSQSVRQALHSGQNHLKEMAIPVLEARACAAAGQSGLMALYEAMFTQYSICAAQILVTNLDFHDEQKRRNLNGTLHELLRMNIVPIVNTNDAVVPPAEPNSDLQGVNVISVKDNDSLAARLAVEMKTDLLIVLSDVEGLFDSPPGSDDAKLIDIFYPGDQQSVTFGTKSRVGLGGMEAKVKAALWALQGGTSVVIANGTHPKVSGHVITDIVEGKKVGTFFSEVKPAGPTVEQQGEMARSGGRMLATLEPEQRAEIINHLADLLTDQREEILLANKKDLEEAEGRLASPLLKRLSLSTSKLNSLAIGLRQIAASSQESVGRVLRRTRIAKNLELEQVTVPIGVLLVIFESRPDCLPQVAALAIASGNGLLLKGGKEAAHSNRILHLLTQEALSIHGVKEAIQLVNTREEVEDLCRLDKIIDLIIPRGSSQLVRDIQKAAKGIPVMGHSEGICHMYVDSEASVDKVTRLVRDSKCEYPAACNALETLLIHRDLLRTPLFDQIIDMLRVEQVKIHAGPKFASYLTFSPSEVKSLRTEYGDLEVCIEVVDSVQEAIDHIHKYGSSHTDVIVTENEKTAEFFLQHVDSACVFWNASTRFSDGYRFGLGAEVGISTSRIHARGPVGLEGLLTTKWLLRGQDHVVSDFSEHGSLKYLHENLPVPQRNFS", "assay": "microscale thermophoresis (Monolith NT.[…])", "assay_type": "binding"}, "[3]": {"target": "T3, P5CS (Aldh18a1), endogenous in C2C12 myotubes (Mus musculus, UniProt Q9Z110)", "T3 construct": "native endogenous protein in C2C12 myotubes; no tag; detected by Western blot", "T3 sequence (Q9Z110 1-795)": "T2 sequence (Q9Z110 1-795)", "assay": "CETSA, Western blot", "assay_type": "cell-based", "conditions": "intact C2C12 myotubes, 20 μM carnosol, 1 h; NP40 lysate heated 5 min"}},
  "note": "pKd: −log10 of the molar value.",
  "data": [
    {"compound": "CC(C)c1cc2c(c(O)c1O)[C@@]13CCCC(C)(C)[C@@H]1C[C@@H]2OC3=O", "note": "[carnosol]", "values": [
      {"measurement": "thermal stability", "setting": "[1]", "value": "H9c2 cardiomyocytes also showed similar results that carnosol increased the thermal stability of P5CS"},
      {"measurement": "pKd", "setting": "[2]", "value": 4.76},
      {"measurement": "thermal stability", "setting": "[3]", "value": "the thermal stability of P5CS in C2C12 was improved after the incubation of myotubes with carnosol"}
    ]}
  ]
}
